# Where two headings read alike, the source gives them in different places.
# Tests used:
# CD8+ T cells [1] = assay: Meta-analysis of published SARS-CoV-2 CD8 T cell epitope data curated in the IEDB (25 studies); assay type: cell-based, human
# CD8+ T cells [2] = conditions: cited from earlier work
# [3] = SARS-CoV-2-derived CD8 epitopes, dominant = recognized by 3 or more donors/different studies
# [4] = CD8S (D) Megapool, antigen S, dominant = recognized in 3 or more donors/studies
# [5] = CD8 epitopes, Yes = recognized by 3 or more donors/different studies
# [6] = CD8-restricted SARS-CoV-2 epitopes, Yes = recognized by 3 or more donors/different studies
# [7] = CD8R (D) megapool epitopes, dominant = recognized by 3 or more donors/different studies
# [8] = SARS-CoV-2 Ag S, T cell type recognizing the epitope
# [9] = T cell type (CD4 or CD8) recognizing the SARS-CoV-2 epitope
# [10] = T cell subset (CD4 or CD8) recognizing the SARS-CoV-2-derived epitope
# [11] = CD8RE megapool peptides (non-spike SARS-CoV-2 antigens), dominant epitope Yes/No
substance,measurement,setting,value
818 (RPDTRYVL) [compound 818],Dominant,CD8+ T cells [1]; [3],Yes (more dominant epitopes are defined by being recognized by 3 or more donors/different studies)
1490 (FQPTNGVGY) [compound 1490],Dominant,CD8+ T cells [1]; [4],Yes (more dominant epitopes are defined by being recognized by 3 or more donors/different studies)
476 (ATSRTLSYY) [compound 476],Dominant,CD8+ T cells [1]; [5],Yes (more dominant epitopes are defined by being recognized by 3 or more donors/different studies)
1521 (SEPVLKGVKL) [compound 1521],Dominant,CD8+ T cells [1]; [4],Yes (more dominant epitopes are defined by being recognized by 3 or more donors/different studies)
1298 (NLDSKVGGNY) [compound 1298],Dominant,CD8+ T cells [1]; [6],Yes (more dominant epitopes are defined by being recognized by 3 or more donors/different studies)
1259 (WTAGAAAYY) [compound 1259],Dominant,CD8+ T cells [1]; [6],Yes (more dominant epitopes are defined by being recognized by 3 or more donors/different studies)
848 (TSEDMLNPNY) [compound 848],Dominant,CD8+ T cells [1]; [3],Yes (more dominant epitopes are defined by being recognized by 3 or more donors/different studies)
1133 (VYFLQSINF) [compound 1133],Dominant,CD8+ T cells [1]; [6],Yes (more dominant epitopes are defined by being recognized by 3 or more donors/different studies)
1480 (WTAGAAAYY) [compound 1480],Dominant,CD8+ T cells [1]; [4],Yes (more dominant epitopes are defined by being recognized by 3 or more donors/different studies)
1476 (FVFKNIDGY) [compound 1476],Dominant,CD8+ T cells [1]; [4],Yes (more dominant epitopes are defined by being recognized by 3 or more donors/different studies)
1475 (SSANNCTFEY) [compound 1475],Dominant,CD8+ T cells [1]; [4],Yes (more dominant epitopes are defined by being recognized by 3 or more donors/different studies)
451 (SYFIASFRLFA) [compound 451],Dominant,CD8+ T cells [1]; [5],Yes (more dominant epitopes are defined by being recognized by 3 or more donors/different studies)
1485 (KIADYNYKL) [compound 1485],Dominant,CD8+ T cells [1]; [4],Yes (more dominant epitopes are defined by being recognized by 3 or more donors/different studies)
1497 (SIIAYTMSL) [compound 1497],Dominant,CD8+ T cells [1]; [4],Yes (more dominant epitopes are defined by being recognized by 3 or more donors/different studies)
1496 (VASQSIIAY) [compound 1496],Dominant,CD8+ T cells [1]; [4],Yes (more dominant epitopes are defined by being recognized by 3 or more donors/different studies)
1258 (LLALHRSYL) [compound 1258],Dominant,CD8+ T cells [1]; [6],Yes (more dominant epitopes are defined by being recognized by 3 or more donors/different studies)
754 (YIFFASFYY) [compound 754],Dominant,CD8+ T cells [1]; [3],Yes (more dominant epitopes are defined by being recognized by 3 or more donors/different studies)
1495 (SVASQSIIAY) [compound 1495],Dominant,CD8+ T cells [1]; [4],Yes (more dominant epitopes are defined by being recognized by 3 or more donors/different studies)
1489 (YFPLQSYGF) [compound 1489],Dominant,CD8+ T cells [1]; [4],Yes (more dominant epitopes are defined by being recognized by 3 or more donors/different studies)
1225 (GVYFASTEK) [compound 1225],Dominant,CD8+ T cells [1]; [6],Yes (more dominant epitopes are defined by being recognized by 3 or more donors/different studies)
1474 (TLDSKTQSL) [compound 1474],Dominant,CD8+ T cells [1]; [4],Yes (more dominant epitopes are defined by being recognized by 3 or more donors/different studies)
492 (KFPRGQGVPI) [compound 492],Dominant,CD8+ T cells [1]; [5],Yes (more dominant epitopes are defined by being recognized by 3 or more donors/different studies)
856 (FLNGSCGSV) [compound 856],Dominant,CD8+ T cells [1]; [3],Yes (more dominant epitopes are defined by being recognized by 3 or more donors/different studies)
1504 (MIAQYTSAL) [compound 1504],Dominant,CD8+ T cells [1]; [4],Yes (more dominant epitopes are defined by being recognized by 3 or more donors/different studies)
1508 (VLNDILSRL) [compound 1508],Dominant,CD8+ T cells [1]; [4],Yes (more dominant epitopes are defined by being recognized by 3 or more donors/different studies)
1291 (KCYGVSPTK) [compound 1291],Dominant,CD8+ T cells [1]; [6],Yes (more dominant epitopes are defined by being recognized by 3 or more donors/different studies)
1157 (HLVDFQVTI) [compound 1157],Dominant,CD8+ T cells [1]; [6],Yes (more dominant epitopes are defined by being recognized by 3 or more donors/different studies)
1174 (RARSVSPKL) [compound 1174],Dominant,CD8+ T cells [1]; [6],Yes (more dominant epitopes are defined by being recognized by 3 or more donors/different studies)
1190 (KLGSLVVRC) [compound 1190],Dominant,CD8+ T cells [1]; [6],Yes (more dominant epitopes are defined by being recognized by 3 or more donors/different studies)
883 (NYSGVVTTVMF) [compound 883],Dominant,CD8+ T cells [1]; [3],Yes (more dominant epitopes are defined by being recognized by 3 or more donors/different studies)
723 (ASMPTTIAK) [compound 723],Dominant,CD8+ T cells [1]; [3],Yes (more dominant epitopes are defined by being recognized by 3 or more donors/different studies)
747 (ILFTRFFYV) [compound 747],Dominant,CD8+ T cells [1]; [3],Yes (more dominant epitopes are defined by being recognized by 3 or more donors/different studies)
772 (QLMCQPILLL) [compound 772],Dominant,CD8+ T cells [1]; [3],Yes (more dominant epitopes are defined by being recognized by 3 or more donors/different studies)
1491 (GPKKSTNLV) [compound 1491],Dominant,CD8+ T cells [1]; [4],Yes (more dominant epitopes are defined by being recognized by 3 or more donors/different studies)
1469 (YTNSFTRGVY) [compound 1469],Dominant,CD8+ T cells [1]; [4],Yes (more dominant epitopes are defined by being recognized by 3 or more donors/different studies)
1493 (IGAEHVNNSY) [compound 1493],Dominant,CD8+ T cells [1]; [4],Yes (more dominant epitopes are defined by being recognized by 3 or more donors/different studies)
841 (FLLNKEMYL) [compound 841],Dominant,CD8+ T cells [1]; [3],Yes (more dominant epitopes are defined by being recognized by 3 or more donors/different studies)
1499 (TEILPVSMTK) [compound 1499],Dominant,CD8+ T cells [1]; [4],Yes (more dominant epitopes are defined by being recognized by 3 or more donors/different studies)
1488 (NYNYLYRLF) [compound 1488],Dominant,CD8+ T cells [1]; [4],Yes (more dominant epitopes are defined by being recognized by 3 or more donors/different studies)
1178 (VQELYSPIFLIV) [compound 1178],Dominant,CD8+ T cells [1]; [6],Yes (more dominant epitopes are defined by being recognized by 3 or more donors/different studies)
1799 (VTDTPKGPK) [compound 1799],Dominant,CD8+ T cells [2]; [7],Yes (more dominant epitopes are defined by being recognized by 3 or more donors/different studies)
1381 (LADAGFIKQY) [compound 1381],Restriction,CD8+ T cells [2]; [8],CD8
1077 (VVQQLPETY) [compound 1077],Restriction,CD8+ T cells [2]; [9],CD8
652 (NINLHTQVV) [compound 652],Restriction,CD8+ T cells [2]; [10],CD8
1336 (IHADQLTPTW) [compound 1336],Restriction,CD8+ T cells [2]; [8],CD8
1014 (NTSRYWEPEFY) [compound 1014],Restriction,CD8+ T cells [2]; [9],CD8
1060 (KIEELFYSY) [compound 1060],Restriction,CD8+ T cells [2]; [9],CD8
2949 (YTMADLVYAL) [compound 2949],Dominant,CD8+ T cells [2]; [11],Yes (more dominant epitopes are defined by being recognized by 3 or more donors/different studies)
1711 (VLSEARQHL) [compound 1711],Dominant,CD8+ T cells [2]; [7],Yes (more dominant epitopes are defined by being recognized by 3 or more donors/different studies)
1383 (GLTVLPPLL) [compound 1383],Restriction,CD8+ T cells [2]; [8],CD8
2964 (VLQAVGACV) [compound 2964],Dominant,CD8+ T cells [2]; [11],Yes (more dominant epitopes are defined by being recognized by 3 or more donors/different studies)
981 (VENPHLMGWD) [compound 981],Restriction,CD8+ T cells [2]; [9],CD8
1312 (NGVEGFNCY) [compound 1312],Restriction,CD8+ T cells [2]; [8],CD8
613 (GADPIHSLR) [compound 613],Restriction,CD8+ T cells [2]; [10],CD8
571 (ILSPLYAFA) [compound 571],Restriction,CD8+ T cells [2]; [10],CD8
697 (ASRELKVTF) [compound 697],Restriction,CD8+ T cells [2]; [10],CD8
3026 (NTCDGTTFTY) [compound 3026],Dominant,CD8+ T cells [2]; [11],Yes (more dominant epitopes are defined by being recognized by 3 or more donors/different studies)
1094 (SSEAFLIGCNY) [compound 1094],Restriction,CD8+ T cells [2]; [9],CD8
2923 (LSPRWYFYYL) [compound 2923],Dominant,CD8+ T cells [2]; [11],Yes (more dominant epitopes are defined by being recognized by 3 or more donors/different studies)
1354 (LGAENSVAY) [compound 1354],Restriction,CD8+ T cells [2]; [8],CD8
1436 (FPREGVFV) [compound 1436],Restriction,CD8+ T cells [2]; [8],CD8
628 (PTDNYITTY) [compound 628],Dominant,CD8+ T cells [2]; [3],Yes (more dominant epitopes are defined by being recognized by 3 or more donors/different studies)
same,Restriction,CD8+ T cells [2]; [10],CD8
979 (ATVVIGTSK) [compound 979],Restriction,CD8+ T cells [2]; [9],CD8
3035 (MDLFMRIFTI) [compound 3035],Dominant,CD8+ T cells [2]; [11],Yes (more dominant epitopes are defined by being recognized by 3 or more donors/different studies)
2974 (IVDTVSALV) [compound 2974],Dominant,CD8+ T cells [2]; [11],Yes (more dominant epitopes are defined by being recognized by 3 or more donors/different studies)
675 (LGDVRETMSY) [compound 675],Restriction,CD8+ T cells [2]; [10],CD8
929 (VPHISRQRL) [compound 929],Restriction,CD8+ T cells [2]; [9],CD8
620 (EVKPFITESK) [compound 620],Restriction,CD8+ T cells [2]; [10],CD8
1715 (TMADLVYAL) [compound 1715],Dominant,CD8+ T cells [2]; [7],Yes (more dominant epitopes are defined by being recognized by 3 or more donors/different studies)
3004 (ILFTRFFYV) [compound 3004],Dominant,CD8+ T cells [2]; [11],Yes (more dominant epitopes are defined by being recognized by 3 or more donors/different studies)
503 (YLGTGPEAGL) [compound 503],Restriction,CD8+ T cells [2]; [10],CD8
